Measurements as given in ChEMBL document CHEMBL1126737, “Toward a novel metal-based chemotherapy against tropical diseases. 1. Enhancement of the efficacy of clotrimazole against Trypanosoma cruzi by complexation to ruthenium in RuCl2(clotrimazole)2” (J Med Chem, 1993).

Tests used:
[1] = Effective concentration that inhibits growth of Trypanosoma cruzi by 50% was reported; assay type: functional
[2] = system: Vero; test: Effective concentration to inhibit the proliferation of amastigote form of the parasite grown on mammalian (Vero) cells; assay type: functional, cell-based, Chlorocebus sabaeus
[3] = system: Trypanosoma cruzi; test: Inhibition of the proliferation of epimastigote form of Trypanosoma cruzi was determined at 10 e-5 M; assay type: functional

Molecule	EC50 [1] [nM]	EC50 [2] [nM]	inhibition [3] [%]
Clc1ccccc1C(c1ccccc1)(c1ccccc1)n1ccnc1 [CLOTRIMAZOLE]	3000	–	–
RuCl2(clotrimazole)2 [listing 1 of 2 here]	100	5	–
RuCl2(clotrimazole)2 [listing 2 of 2 here]	–	–	90
